Reference: PMC12432435, “Not only an inhibitor: Trehalose enhances the catalytic action exerted on oxaloacetate by rabbit lactate dehydrogenase” (Protein Science : A Publication of the Protein Society, 2025)

Key:
[1] = molecular target: T1, rabbit muscle lactate dehydrogenase (rbLDH, LDH-A) (Oryctolagus cuniculus, UniProt P13491); experiment: stopped-flow tryptophan fluorescence quenching of the rbLDH•β-NADH complex; type: binding
T1 construct: gene LDHA; tetrameric enzyme from rabbit skeletal muscle

[2] = molecular target: T1, rabbit muscle lactate dehydrogenase (rbLDH, LDH-A); experiment: stopped-flow tryptophan fluorescence quenching (FRET), association and dissociation kinetics; type: binding; details: read-out: stopped-flow tryptophan fluorescence quenching (FRET), association and dissociat

Row | SMILES | Control / k obs [1] | kon [2]
1 | NC(=O)C(=O)O [oxamate] | 642 ± 19 s⁻¹ | –
2 | NC(=O)C1=CN([C@@H]2O[C@H](COP(=O)(O)OP(=O)(O)OC[C@H]3O[C@@H](n4cnc5c(N)ncnc54)[C@H](O)[C@@H]3O)[C@@H](O)[C@H]2O)C=CC1 [β-NADH] | – | 1.17e+08 M⁻¹ s⁻¹
